Experimental findings from US7943618B2, “Btk protein kinase inhibitors” (Roche Palo Alto LLC, priority 2007, dated 2011) are described below.

The structures appear in SMILES notation. pIC50: −log10 of the molar value.

The target of series [1] is T1, Btk enzyme (His-tagged, full-length) (Homo sapiens, UniProt Q06187).
T1 construct: 5-10 nM Btk enzyme (His-tagged, full-length); His
Briefly: Bruton's Tyrosine Kinase (Btk) Inhibition Assay (33P filtration capture). The format is biochemical. Conditions: Bruton's tyrosine kinase Assay (Example 34), 100 μM ATP. The source says:
Bruton's Tyrosine Kinase (Btk) Inhibition Assay
The assay is a capture of radioactive ^33P phosphorylated product through filtration. The interactions of Btk, biotinylated SH2 peptide substrate (Src homology), and ATP lead to phosphorylation of the peptide substrate. Biotinylated product is bound streptavidin sepharose beads. All bound, radiolabeled products are detected by scintillation counter.
Plates assayed are 96-well polypropylene (Greiner) and 96-well 1.2 μm hydrophilic PVDF filter plates (Millipore).
IC50 determinations are calculated from 10 data points per compound utilizing data produced from a standard 96-well plate assay template. One control compound and seven unknown inhibitors were tested on each plate and each plate was run twice. […] The control compound was staurosporine. Background was counted in the absence of peptide substrate. Total activity was determined in the presence of peptide substrate. The following protocol was used to determine Btk inhibition.
1) Sample preparation: The test compounds were diluted at half-log increments in assay buffer (imidazole, glycerol-2-phosphate, EGTA, MnCl2, MgCl2, BSA).
2) Bead preparation • a.) rinse beads by centrifuging at 500 g • b.) reconstitute the beads with PBS and EDTA to produce a 20% bead slurry
3) Pre-incubate reaction mix without substrate (assay buffer, DTT, ATP, ^33P ATP) and mix with substrate (assay buffer, DTT, ATP, ^33P ATP, peptide substrate) 30° C. for 15 min.
4) To start assay, pre-incubate 10 μL Btk in enzyme buffer (imidazole, glycerol-2-phosphate, BSA) and 10 μL of test compounds for 10 min at RT.
5) Add 30 μL reaction mixture without or with substrate to Btk and compounds.
6) Incubate 50 μL total assay mix for 30 min at 30° C.
7) Transfer 40 μL of assay to 150 μL bead slurry in filter plate to stop reaction.
8) Wash filter plate after 30 min, with following steps • a. 3×250 μL NaCl • b. 3×250 μL NaCl containing 1% phosphoric acid • c. 1×250 μL H2O
9) Dry plate for 1 h at 65° C. or overnight at RT
10) Add 50 μL microscint-20 and count ^33P cpm on scintillation counter.
Calculate percent activity from raw data in cpm percent activity=(sample−bkg)/(total activity−bkg)×100
Calculate IC50 from percent activity, using one-site dose response sigmoidal model y=A+((B−A)/(1+((x/C)^D))))

T1 sequence (Q06187 whole entry): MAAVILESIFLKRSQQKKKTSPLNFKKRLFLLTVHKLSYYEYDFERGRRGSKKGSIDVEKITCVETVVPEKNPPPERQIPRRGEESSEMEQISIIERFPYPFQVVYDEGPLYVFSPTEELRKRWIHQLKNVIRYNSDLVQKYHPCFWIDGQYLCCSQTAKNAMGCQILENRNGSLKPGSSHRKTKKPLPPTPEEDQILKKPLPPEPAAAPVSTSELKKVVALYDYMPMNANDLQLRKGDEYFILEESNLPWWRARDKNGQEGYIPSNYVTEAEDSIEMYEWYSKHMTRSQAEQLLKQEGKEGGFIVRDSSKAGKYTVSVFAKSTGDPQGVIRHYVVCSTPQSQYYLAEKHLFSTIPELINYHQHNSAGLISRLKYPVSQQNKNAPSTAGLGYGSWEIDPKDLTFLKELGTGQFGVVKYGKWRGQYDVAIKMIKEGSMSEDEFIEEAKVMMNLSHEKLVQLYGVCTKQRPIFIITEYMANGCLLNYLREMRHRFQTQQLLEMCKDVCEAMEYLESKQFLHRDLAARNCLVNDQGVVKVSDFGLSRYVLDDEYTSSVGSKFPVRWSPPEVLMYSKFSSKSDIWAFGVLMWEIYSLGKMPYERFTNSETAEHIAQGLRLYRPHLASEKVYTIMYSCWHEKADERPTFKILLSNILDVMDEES

As for `Cc1c(NC(=O)c2ccc(C(C)(C)C)cc2)cccc1-c1cc(Nc2ccnc(OCCN(C)C)n2)c(=O)n(C)n1` [Compound I-18], the melting point – broadly, the temperature of the solid-liquid transition – was 188 to 189 °C. Further, the negative-log IC50 (pIC50) – broadly, −log10 of the IC50, conventionally taken in molar units – in series [1] (Table I pyridazinones) was 6.49.

`Cc1c(NC(=O)c2ccc(C(C)(C)C)cc2)cccc1-c1cc(Nc2ccnc(N3CCC(CO)C3)n2)c(=O)n(C)n1` (centres unmarked) [Compound I-20] had a melting point of 210 to 211 °C. Besides, the negative-log IC50 (pIC50) in series [1] (Table I pyridazinones) was 6.90.

`Cc1c(NC(=O)c2ccc(C(C)(C)C)cc2)cccc1-c1cc(Nc2ccnc(N3CCCC3)n2)c(=O)n(C)n1` [Compound I-21]: the melting point lay in the range of 193 to 195 °C. The compound further had a pIC50 in series [1] (Table I pyridazinones) of 6.45.

In the case of `CNC(=O)Nc1cc(-c2cccc(NC(=O)c3ccc(C(C)(C)C)cc3)c2C)nn(C)c1=O` [Compound I-23, 4-tert-Butyl-N-{2-methyl-3-[1-methyl-5-(3-methyl-ureido)-6-oxo-1,6-dihydro-pyridazin-3-yl]-phenyl}-benzamide], the melting point lay within 287 to 288 °C. Moreover, in series [1] (Table I pyridazinones), the negative-log IC50 (pIC50) was 7.00.

Compound `Cc1c(NC(=O)c2ccc(C(C)(C)C)cc2)cccc1-c1cc(Nc2ccc(C(=O)N3CCOCC3)cc2)c(=O)n(C)n1` [Compound I-24] displayed a melting point of 157 to 158 °C. The same compound gave a pIC50 in series [1] (Table I pyridazinones) of 6.96.

`Cn1nc(-c2cccc(NC(=O)c3ccc(C(C)(C)C)cc3)c2)cc(Nc2ccc(C(=O)N3CCOCC3)cn2)c1=O` [Compound I-25]: the melting point was in the range of 229 to 230 °C. Also, the pIC50 in series [1] (Table I pyridazinones) was 6.92.

With `CCNC(=O)Nc1cc(-c2cccc(NC(=O)c3ccc(C(C)(C)C)cc3)c2C)nn(C)c1=O` [Compound I-27], the melting point is 278 to 279 °C. This compound also showed a pIC50 in series [1] (Table I pyridazinones) of 6.91.

In the case of `COc1cc(C(C)(C)C)ccc1C(=O)Nc1cccc(-c2cc(Nc3ccc(C(=O)N4CCOCC4)cn3)c(=O)n(C)n2)c1` [Compound I-30], the melting point is 216 to 217 °C. Moreover, in series [1] (Table I pyridazinones), the pIC50 was 7.23.

`Cn1nc(-c2cccc(CC(=O)N3CCCC3)c2)cc(Nc2ccc(C(=O)N3CCOCC3)cn2)c1=O` [Compound I-33] showed a melting point of 117 to 118 °C. In series [1] (Table I pyridazinones), the pIC50 was 4.79.

In turn, `CC(C)OC1CN(C(=O)Cc2cccc(-c3cc(Nc4ccc(C(=O)N5CCOCC5)cn4)c(=O)n(C)n3)c2)C1` [Compound I-35] showed a melting point of 92 to 93 °C. The compound also showed a pIC50 in series [1] (Table I pyridazinones) of 6.38.

As to `Cn1nc(-c2cccc(CC(=O)OCCOC(C)(C)C)c2)cc(Nc2ccc(C(=O)N3CCOCC3)cn2)c1=O` [Compound I-36], the melting point fell in the range of 80 to 81 °C. Besides, in series [1] (Table I pyridazinones), the negative-log IC50 (pIC50) was 5.66.

In turn, `Cn1nc(-c2cccc(CC(=O)N3Cc4ccccc4C3)c2)cc(Nc2ccc(C(=O)N3CCOCC3)cn2)c1=O` [Compound I-40] had a melting point of 179 to 180 °C. Besides, in series [1] (Table I pyridazinones), the negative-log IC50 (pIC50) is 6.17.

As for `CC(C)N1CCN(C(=O)Cc2cccc(-c3cc(Nc4ccc(C(=O)N5CCOCC5)cn4)c(=O)n(C)n3)c2)CC1` [Compound I-41], the melting point was 209 to 210 °C. Besides, in series [1] (Table I pyridazinones), the pIC50 is 5.20.

In turn, `Cn1nc(-c2cccc(CC(=O)N3CCC(C(C)(C)C)CC3)c2)cc(Nc2ccc(C(=O)N3CCOCC3)cn2)c1=O` [Compound I-42] displayed a melting point of 231 to 232 °C. Moreover, the pIC50 in series [1] (Table I pyridazinones) is 5.63.

Compound `Cn1nc(-c2cccc(CC(=O)NCCC(C)(C)C)c2)cc(Nc2ccc(C(=O)N3CCOCC3)cn2)c1=O` [Compound I-43] yielded a melting point of 138 to 139 °C. In series [1] (Table I pyridazinones), this compound had a pIC50 of 5.20.

Consider `Cc1c(NC(=O)c2ccc(C(C)(C)C)cc2)cccc1-c1cc(NC(=O)NC(C)C)c(=O)n(C)c1` [II-6], for which the melting point was in the range of 185 to 186 °C. In addition, in series [1] (Table II pyridinones), the pIC50 is 6.51.

As to `Cc1c(NC(=O)c2ccc(C(C)(C)C)cc2)cccc1-c1cc(NC(=O)NCC(F)(F)F)c(=O)n(C)c1` [II-7], the melting point was 258 to 259 °C. The pIC50 in series [1] (Table II pyridinones) is 6.06.

In turn, `Cc1c(NC(=O)c2ccc(C(C)(C)C)cc2)cccc1-c1cc(NC(=O)Nc2ccccc2)c(=O)n(C)c1` [II-8] registered a melting point of 219 to 220 °C. Also, the pIC50 in series [1] (Table II pyridinones) was 5.14.

For the compound `Cc1c(NC(=O)c2ccc(C(C)(C)C)cc2)cccc1-c1cc(NC(=O)NCc2ccccc2)c(=O)n(C)c1` [II-9], the melting point lay within 169 to 170 °C. In addition, the negative-log IC50 (pIC50) in series [1] (Table II pyridinones) was 5.91.

Turning to `CNC(=O)Nc1cc(-c2cccc(NC(=O)c3cc4ccccc4s3)c2C)cn(C)c1=O` [II-10], the melting point was in the range of 286 to 287 °C. The pIC50 in series [1] (Table II pyridinones) is 6.88.

In turn, `CNC(=O)Nc1cc(-c2cccc(NC(=O)c3cc4c(s3)CCCC4)c2C)cn(C)c1=O` [II-11, 4,5,6,7-Tetrahydro-benzo[b]thiophene-2-carboxylic acid{2-methyl-3-[1-methyl-5-(3-methyl-ureido)-6-oxo-1,6-dihydro-pyridin-3-yl]-phenyl}-amide] yielded a melting point of 254 to 255 °C. The compound further gave a pIC50 in series [1] (Table II pyridinones) of 7.40.

Compound `CNC(=O)Nc1cc(-c2cccc(NC(=O)N3Cc4ccc(F)cc4C3)c2C)cn(C)c1=O` [II-14] gave a melting point of 262 to 263 °C. In addition, in series [1] (Table II pyridinones), the pIC50 was 5.71.

`Cc1c(NC(=O)c2ccc(C(C)(C)C)cc2)cccc1-c1cc(NC(=O)NCCN(C)C)c(=O)n(C)c1` [II-16] showed a melting point of 164 to 165 °C. In addition, the pIC50 in series [1] (Table II pyridinones) was 6.89.

Turning to `CNC(=O)Nc1cc(-c2cccc(NC(=O)N3Cc4ccccc4C3)c2C)cn(C)c1=O` [II-17, 1,3-Dihydro-isoindole-2-carboxylic acid{2-methyl-3-[1-methyl-5-(3-methyl-ureido)-6-oxo-1,6-dihydro-pyridin-3-yl]-phenyl}-amide], the melting point lay in the range of 264 to 265 °C. In series [1] (Table II pyridinones), this compound showed a negative logarithm of the IC50 (pIC50) of 6.18.

Compound `Cc1c(NC(=O)c2ccc(C(C)(C)C)cc2)cccc1-c1cc(NC(=O)NCCO)c(=O)n(C)c1` [II-18] displayed a melting point of 220 to 221 °C. The compound further showed a negative logarithm of the IC50 (pIC50) in series [1] (Table II pyridinones) of 7.42.

With `Cc1c(NC(=O)c2ccc(C(C)(C)C)cc2)cccc1-c1cc(NC(=O)NCCCN(C)C)c(=O)n(C)c1` [II-22], the melting point was in the range of 194 to 195 °C. For the same compound, in series [1] (Table II pyridinones), the pIC50 is 7.54.

In the case of `CNC(=O)Nc1cc(-c2cccc(CC(=O)N3CC(OC(C)(C)C)C3)c2)cn(C)c1=O` [II-29, 1-(5-{3-[2-(3-tert-Butoxy-azetidin-1-yl)-2-oxo-ethyl]-phenyl}-1-methyl-2-oxo-1,2-dihydro-pyridin-3-yl)-3-methyl-urea], the melting point was 125 to 126 °C. Moreover, in series [1] (Table II pyridinones), the negative-log IC50 (pIC50) was 5.85.

As for `CNC(=O)Nc1cc(-c2cccc(CC(=O)N3CC(OC(C)C)C3)c2)cn(C)c1=O` [II-30], the melting point fell in the range of 118 to 119 °C. The same compound had a pIC50 in series [1] (Table II pyridinones) of 5.36.

As to `CNC(=O)Nc1cc(-c2cccc(CC(=O)N3Cc4ccccc4C3)c2)cn(C)c1=O` [II-45], the melting point lay in the range of 251 to 252 °C. The same compound gave a pIC50 in series [1] (Table II pyridinones) of 5.81.

The compound `CNC(=O)Nc1cc(-c2cccc(CC(=O)N3CC(CC(C)(C)O)C3)c2)cn(C)c1=O` [II-47] displayed a melting point of 113 to 114 °C. Also, the negative-log IC50 (pIC50) in series [1] (Table II pyridinones) is 4.26.

In turn, `CCN(CC)Cc1ccc(Nc2cc(-c3cccc(NC(=O)c4ccc(C5(F)CC5)cc4)c3CO)cn(C)c2=O)nc1` [II-70, N-{3-[5-(5-Diethylaminomethyl-pyridin-2-ylamino)-1-methyl-6-oxo-1,6-dihydro-pyridin-3-yl]-2-hydroxymethyl-phenyl}-4-(1-fluoro-cyclopropyl)-benzamide] returned a melting point of 203 to 204 °C. The compound further gave a pIC50 in series [1] (Table II pyridinones) of over 8.00.
